Experimental findings from patent publication US4206217A, “3-[4-(1,3-Diazacycloalken-2-yl)-phenyl]-1,2-benzisothiazoles, their manufacture, and drugs containing these compounds” (BASF Aktiengesellschaft, priority 1977, dated 1980) are described below.

Counter-ions that a name gives are not always drawn.

Series [1] concerns female Swiss mice. Briefly: in vivo. The conditions noted are these: versus procainamide. As for the experimental part:
(§1) The acute toxicity was determined on groups of 10 or 20 female Swiss mice weighing 20-26 g, using intraperitoneal administration. The LD 50 was calculated (Probit analysis) as the dose following which 50% of the animals died within 7 days.

A short description of series [2]: in vivo. The conditions noted are these: mouse, in vivo; for LD50 at 168 h: ip. Here is the method:
as §1

Series [3] relates to aconitine-induced arrhythmia. The series can be described thus: animal or person. Type of series: in vivo, rat (Sprague Dawley). As to conditions: for ED50: Rattus norvegicus, po, read-out: Antiarrhythmic effect: effective dose ED 50%; for Maximum effect: Δ% (increase in duration of aconitine infusion): effect of the maximum nontoxic dose (215 for Examples 2 and 3; 681 for procainamide); for Maximum effect: Δ% (increase in duration of aconitine infusion) / Antiarrhythmic effect: R.E. (relative effect) / Maximum effect: R.M.E. (relative maximum effectiveness) / Effect at the maximum dose, higher than that of procainamide / Antiarrhythmic activity greater than that of procainamide: rat, oral; for Antiarrhythmic effect: R.E. (relative effect) / Maximum effect: R.M.E. (relative maximum effectiveness): procainamide = 1.00; for Antiarrhythmic effect: R.E. (relative effect): effective dose; for Effect at the maximum dose, higher than that of procainamide / Antiarrhythmic activity greater than that of procainamide: versus procainamide. Here is the method:
The antiarrhythmic activity of the compounds was determined by orally administering these to rats (Sprague Dawley, weight: 180-240 g) 45 minutes before the start of narcosis (100 mg/kg of thiobutabarbital, administered intraperitoneally).
The arrhythmogenous substance used was aconitine, administered by intravenous infusion (at the rate of 0.005 mg/kg.minute) 60 minutes after administration of the compound of the invention.
For a quantitative evaluation of the linear relation between the logarithm of the dose (mg/kg) of the test substances and the relative increase in the duration of infusion of aconitine (Δ%), the dose which increases the duration of infusion by 50% (ED 50%) was determined.

Series [4] relates to ventricular fibrillation threshold. Briefly: Ventricular fibrillation threshold in guinea pigs. As to conditions: intravenous administration. Type of series: in vivo, guinea pig. From the text:
Ventricular fibrillation threshold in guinea pigs:

Series [5] has as its system isolated auricle. Briefly: Stimulation time/tension relationship (isolated auricle). The text has this:
In test models used in respect of the antiarrhythmic effect, the following findings were obtained: Stimulation time/tension relationship (isolated auricle): […]

In the case of `c1ccc2c(-c3ccc(C4=NCCCN4)cc3)nsc2c1` [Example 2, 3-[4-(Tetrahydropyrimidin-2-yl)-phenyl]-1,2-benzisothiazole hydrochloride], the “Therapeutic range (LD 50 / ED 50%) greater than for procainamide” value in series [1] is 4 times. In series [2], the selectivity ratio was determined as 4.03 and the LD50 at 168 h is 126 mg/kg. Besides, in series [3], the ED50 came to 31.2 mg/kg, the “Maximum effect: Δ% (increase in duration of aconitine infusion)” value is listed as 289%, the “Antiarrhythmic effect: R.E. (relative effect)” value came to 5.03 and the “Maximum effect: R.M.E. (relative maximum effectiveness)” value worked out at 2.14. In series [3], the “Effect at the maximum dose, higher than that of procainamide” value is on record as 114% and the “Antiarrhythmic activity greater than that of procainamide” value is recorded as “about 5 times”. Further, in series [4], the “Ventricular fibrillation threshold, effect relative to quinidine” value is 1.8 times the effect of quinidine. Besides, in series [5], the “Stimulation time/tension relationship, effect relative to quinidine” value is given as 1.24 times the effect of quinidine.
As for `CC1CN=C(c2ccc(-c3nsc4ccccc34)cc2)N1` (stereo not drawn) [Example 3, 3-[4-(Methylimidazolin-2-yl)-phenyl]-1,2-benzisothiazole hydrochloride], the “Therapeutic range (LD 50 / ED 50%) greater than for procainamide” value in series [1] is listed as 2.8 times. Moreover, in series [2], the selectivity ratio was found to be 2.76 and the median lethal dose (LD50) at 168 h stood at 90.5 mg/kg. In series [3], the ED50 was found to be 32.7 mg/kg, the “Maximum effect: Δ% (increase in duration of aconitine infusion)” value came to 233%, the “Antiarrhythmic effect: R.E. (relative effect)” value was found to be 4.80 and the “Maximum effect: R.M.E. (relative maximum effectiveness)” value was 1.73. Moreover, in series [3], the “Effect at the maximum dose, higher than that of procainamide” value is listed as 73% and the “Antiarrhythmic activity greater than that of procainamide” value is “about 5 times”. Also, the “Stimulation time/tension relationship, effect relative to quinidine” value in series [5] is 1.5 times the effect of quinidine.
In the case of `CCN(CC)CCNC(=O)c1ccc(N)cc1` [Procainamide, procainamide, reference compound], in series [2], the LD50 at 168 h is 227 mg/kg. In series [3], the ED50 was 157 mg/kg and the “Maximum effect: Δ% (increase in duration of aconitine infusion)” value came out at 135%.
